Experimental data published in PubChem BioAssay (NCI).
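These data come from cells grown in 96-well plates and exposed to compound for 48 hours at five concentrations. At the GI50, growth is halved. TGI: concentration producing complete growth inhibition.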

Columns and labels:
Test in all cases: NCI anticancer screen, dose series, 48 h
[1] = tested on: MOLT-4 leukemia
[2] = tested on: SNB-19 CNS
[3] = tested on: HOP-62 NSCLC
[4] = tested on: RXF 393 renal
[5] = tested on: UACC-62 melanoma
[6] = tested on: HL-60(TB) leukemia
[7] = tested on: NCI-H23 lung
[8] = tested on: UACC-257 melanoma
[9] = tested on: TK-10 renal
[10] = tested on: MCF7 breast

Structure (SMILES)	TGI [1] [µM]	TGI [2] [µM]	TGI [3] [µM]	TGI [4] [µM]	TGI [5] [µM]	TGI [6] [µM]	TGI [7] [µM]	TGI [8] [µM]	TGI [9] [µM]	GI50 [1] [µM]	GI50 [2] [µM]	GI50 [4] [µM]	GI50 [10] [µM]	TGI [10] [µM]	GI50 [5] [µM]	GI50 [7] [µM]	GI50 [8] [µM]	GI50 [9] [µM]	GI50 [3] [µM]	GI50 [6] [µM]
CCCCCCCCCC(=O)OCC1OC(n2cc(F)c(=O)[nH]c2=O)C(N)C(OC(=O)CCCCCCCCC)C1O (stereo not given)	32.7	33.6	> 100	31.9	32.7	55.1	36	39	> 100	–	–	–	–	–	–	–	–	–	–	–
CCC(=C(c1ccc(OCc2ccccc2)cc1)c1ccc(OCc2ccccc2)cc1)c1ccc(OC)cc1	> 100	> 100	> 100	> 100	> 100	> 100	> 100	–	> 100	–	–	–	–	–	–	–	–	–	–	–
O=C(CC1(O)C(=O)Nc2c(Cl)cc(Cl)cc21)c1ccc2ccccc2c1 (stereo not given)	27.8	25.4	20.8	20.9	14.6	14.6	22.3	27.1	27.9	–	–	–	–	–	–	–	–	–	–	–
C=CCN(N=O)C(=O)N(CCC)CCCCC(NC(C)=O)C(=O)NCc1ccccc1 (stereo not given)	> 100	> 100	> 100	> 100	> 100	54.4	> 100	> 100	> 100	–	–	–	–	–	–	–	–	–	–	–
CCN(CC)CCOc1cc2c(C(=O)OC)c(C)oc2cc1C(C)=O	7.5	32.2	–	41	21.5	–	27.7	31.7	31.4	3.02	15.8	17.9	22.8	45.2	9.4	11.8	13	16.8	–	–
COc1ccc2c(c1)[n+]([O-])c(-c1nc3ccccc3s1)c(N)[n+]2[O-]	> 100	> 100	> 100	–	–	> 100	> 100	> 100	–	–	–	–	–	–	–	–	–	–	–	–
COC(=O)C1=CC2OC1(C)C1(CC1)C2=O (stereo not given)	27.2	> 100	> 100	28.9	–	16.1	49.7	31	–	–	–	–	–	–	–	–	–	–	–	–
COc1ccc(OC)c2cc(C3(C)SCCCS3)ccc12	> 100	> 100	> 100	77	> 100	> 100	> 100	> 100	> 100	–	–	–	–	–	–	–	–	–	–	–
O=C(CC(=O)C(F)(F)F)c1csc2ccccc12	72.3	> 100	81.1	–	> 100	–	> 100	> 100	28.4	–	–	–	–	–	–	–	–	–	–	–
CC12CC3CC(C)(C1)CC(N=[N+]=[N-])(C3)C2	> 100	> 100	> 100	–	> 100	–	> 100	> 100	> 100	–	–	–	–	–	–	–	–	–	–	–
COC(=O)C1=CC2OC13CC1CCC3(C2=O)C1(C)C (stereo not given)	33.7	52.3	48.1	25.8	30.6	23.1	32.1	24.1	22.6	–	–	–	–	–	–	–	–	–	–	–
Cc1ccc(C2=NO[C@@H]3C(=O)N(c4ccc(Cc5ccc(N6C(=O)[C@H]7C(c8ccc(C)cc8)=NO[C@H]7C6=O)cc5)cc4)C(=O)[C@H]23)cc1	–	–	> 100	> 100	> 100	> 100	> 100	> 100	> 100	–	–	–	–	–	–	–	–	–	–	–
CN=S(=O)(C[C@]1(O)CC2OC1C1OC(C)(C)OC21)c1ccccc1 (stereo not given in full)	> 100	> 100	> 100	> 100	> 100	> 100	> 100	> 100	> 100	–	–	–	–	–	–	–	–	–	–	–
CC(=O)Nc1ccc(/C=C/C(=O)c2sc(C(N)=S)nc2C)cc1	> 100	–	> 100	> 100	> 100	> 100	> 100	> 100	> 100	–	–	–	–	–	–	–	–	–	–	–
COc1ccccc1NC(=O)C1=C(C)NC(C)=C(C(=O)Nc2ccccc2OC)C1c1ccccc1OC	> 100	> 100	> 100	–	> 100	> 100	> 100	> 100	> 100	–	–	–	–	–	–	–	–	–	–	–
Cc1c(Cl)ccc2c1NC(=O)C2(O)C1Cc2ccccc2C1=O (stereo not given)	> 100	> 100	> 100	> 100	> 100	65.4	> 100	> 100	> 100	–	–	–	–	–	–	–	–	–	–	–
COC(=O)C(=O)C(C(=O)C(=O)Nc1cc([N+](=O)[O-])ccc1[N+](=O)[O-])c1nc2ccc(C(=O)c3ccccc3)cc2[nH]c1=O (stereo not given)	61.5	> 100	> 100	–	–	–	70.4	> 100	–	–	–	–	–	–	–	–	–	–	–	–
Clc1ccc(CO/N=C(\Cn2ccnc2)c2ccc(Cl)cc2Cl)c(Cl)c1	4.94	–	2.9	3.05	2.67	4.62	–	3.18	3.25	2.19	–	1.61	1.54	3.02	1.24	–	1.68	1.81	1.56	2.08
CCN(CC)c1ccc2c(c1)N=C1N=CC=CN1C2(c1ccc(N(C)C)cc1)c1ccc(N(C)C)cc1	6.22	24	24.3	23.2	24.1	3.3	20.2	19.5	28.6	–	–	–	–	–	–	–	–	–	–	–
O=C(NCC#CCO)C(F)(F)F	> 100	> 100	> 100	> 100	> 100	–	> 100	> 100	> 100	–	–	–	–	–	–	–	–	–	–	–
O=C(Cn1ccnc1[N+](=O)[O-])NCC(F)(F)C(F)(F)F	–	> 100	> 100	> 100	> 100	–	> 100	> 100	> 100	–	> 100	> 100	> 100	> 100	> 100	> 100	> 100	> 100	> 100	–
Nc1nc(N)c(-c2ccc(Cl)cc2)c(CCC(=O)Nc2cccc(C(F)(F)F)c2)n1	> 100	> 100	> 100	> 100	> 100	> 100	> 100	> 100	> 100	–	–	–	–	–	–	–	–	–	–	–
